Assay results taken from patent publication US10556898B2, “Indazolyl-1,2,4-thiadiazolamines and related compounds for inhibition of Rho-associated protein kinase and the treatment of disease” (Lycera Corporation, priority 2016, dated 2020).
Read-outs that look alike come from different tables or passages of the source.

Columns and labels:
ROCK1 = target: T1, ROCK1 (Homo sapiens, UniProt Q13464); test: Cell-Based Assay, ROCK1 (HAP1 knockout cells, phospho-MYPT1 Thr853 ELISA); conditions: read-out: Results from Cell-Based Assay IC50 (μM) ROCK1
T1 construct: endogenous in cells; host or cells: HAP1 knockout cells
T1 sequence (Q13464 whole entry): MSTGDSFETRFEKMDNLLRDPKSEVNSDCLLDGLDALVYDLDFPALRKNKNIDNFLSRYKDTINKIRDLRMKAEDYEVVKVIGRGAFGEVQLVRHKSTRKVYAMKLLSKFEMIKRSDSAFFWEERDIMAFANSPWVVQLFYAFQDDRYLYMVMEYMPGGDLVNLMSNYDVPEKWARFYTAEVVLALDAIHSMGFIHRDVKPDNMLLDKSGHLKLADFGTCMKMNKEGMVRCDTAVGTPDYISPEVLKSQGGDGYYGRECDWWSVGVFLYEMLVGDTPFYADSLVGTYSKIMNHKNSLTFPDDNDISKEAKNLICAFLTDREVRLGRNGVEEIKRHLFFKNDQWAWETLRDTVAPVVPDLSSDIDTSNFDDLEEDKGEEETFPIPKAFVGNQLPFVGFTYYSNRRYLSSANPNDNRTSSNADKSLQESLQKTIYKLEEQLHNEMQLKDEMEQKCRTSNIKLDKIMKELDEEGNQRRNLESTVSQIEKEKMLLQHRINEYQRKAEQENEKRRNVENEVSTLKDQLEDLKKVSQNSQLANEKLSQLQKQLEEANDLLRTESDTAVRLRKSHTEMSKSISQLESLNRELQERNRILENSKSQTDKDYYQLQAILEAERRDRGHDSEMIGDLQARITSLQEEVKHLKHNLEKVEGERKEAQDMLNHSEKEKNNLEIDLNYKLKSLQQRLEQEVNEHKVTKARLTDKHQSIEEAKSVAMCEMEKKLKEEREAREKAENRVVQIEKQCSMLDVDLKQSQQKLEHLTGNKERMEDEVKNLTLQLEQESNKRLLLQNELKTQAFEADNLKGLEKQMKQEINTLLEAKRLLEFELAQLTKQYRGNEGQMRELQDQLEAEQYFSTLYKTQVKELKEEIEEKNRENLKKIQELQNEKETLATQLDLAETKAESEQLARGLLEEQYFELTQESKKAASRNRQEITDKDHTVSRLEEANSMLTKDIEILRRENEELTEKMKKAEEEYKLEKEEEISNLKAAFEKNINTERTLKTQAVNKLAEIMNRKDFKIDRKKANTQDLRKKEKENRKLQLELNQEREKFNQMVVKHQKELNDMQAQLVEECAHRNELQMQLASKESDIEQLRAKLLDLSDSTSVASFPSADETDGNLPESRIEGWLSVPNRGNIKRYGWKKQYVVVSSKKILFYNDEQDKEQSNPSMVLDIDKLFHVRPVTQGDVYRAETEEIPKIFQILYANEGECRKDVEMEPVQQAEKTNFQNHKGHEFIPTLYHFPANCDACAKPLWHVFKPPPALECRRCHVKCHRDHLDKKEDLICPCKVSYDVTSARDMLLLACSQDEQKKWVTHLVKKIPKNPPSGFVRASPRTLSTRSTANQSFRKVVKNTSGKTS
Experimental: (§1) Part II—Procedure for Determining ROCK Inhibition Ability of Test Compounds Using a Cell-Base Assay
(§2) The Cell-Based Assay for determining ROCK inhibition ability of test compounds utilized a genetically modified HAP1 cell line engineered to eliminate expression of either ROCK1 or ROCK2. In the procedure, HAP1 knockout cells are grown in Iscove's Modified Dulbecco's Medium that is additionally supplemented with 10% fetal bovine and 1x antibiotic-antimycotic mixture. Cells are plated in 96 well tissue culture plates at 1×10^5 cells/well (100 μL, of cells at 1×10^6/mL). Test compounds are solubilized in DMSO and diluted into the same media used to grow the cells. A 100 μL, aliquot of each compound dilution in media is added to each well containing the HAP1 cells and incubated at 37° C. for 30 minutes. Following compound incubation, the cells are pelleted by centrifugation at 1800 rpm for 5 minutes at 4° C. Media is removed from the cell pellet and the cells lysed and de-salted. An 80 μL, aliquot of each cell lysate is added to a single well of a 96-well high binding ELISA plate which has been pre-coated with a MYPT1 capture antibody and incubated at 4° C. overnight. The following day the ELISA plate is washed 4× with 0.05% Tween-20 in PBS. After washing, an anti-phospho-MYPT1 (Thr853) antibody is added and allowed to bind for 1 hour at room temperature. The wash step is repeated, and then an anti-rabbit HRP detection antibody is added and allowed to incubate at room temperature for 1 hour. The wash step is then repeated and 100 μL/well 1-Step™ Ultra TMB substrate is added to the ELISA plate and allowed to develop for approximately 5 minutes. The reaction is stopped by addition of H2SO4. Absorbance is read at 450 OD. Data is analyzed using GraphPad Prism software to calculate the 50% inhibitory concentration of test compound (IC50).

[1] = target: T2, GST-tagged human ROCK2 catalytic domain 1-553 (Homo sapiens, UniProt O75116); test: Isolated Enzyme Assay, ROCK2 (LANCE Ultra ULight-CREBtide FRET); format: biochemical; conditions: isolated enzyme assay; 30 μM highest concentration tested; read-out: Results from Isolated Enzyme Assay IC50 (μM) ROCK2
T2 construct: GST-tagged human ROCK2 catalytic domain 1-553 from Carna Biosciences (Cat #01-110); purchased Carna Biosciences 01-110; host or cells: baculovirus expression system
T2 sequence (O75116 1-553): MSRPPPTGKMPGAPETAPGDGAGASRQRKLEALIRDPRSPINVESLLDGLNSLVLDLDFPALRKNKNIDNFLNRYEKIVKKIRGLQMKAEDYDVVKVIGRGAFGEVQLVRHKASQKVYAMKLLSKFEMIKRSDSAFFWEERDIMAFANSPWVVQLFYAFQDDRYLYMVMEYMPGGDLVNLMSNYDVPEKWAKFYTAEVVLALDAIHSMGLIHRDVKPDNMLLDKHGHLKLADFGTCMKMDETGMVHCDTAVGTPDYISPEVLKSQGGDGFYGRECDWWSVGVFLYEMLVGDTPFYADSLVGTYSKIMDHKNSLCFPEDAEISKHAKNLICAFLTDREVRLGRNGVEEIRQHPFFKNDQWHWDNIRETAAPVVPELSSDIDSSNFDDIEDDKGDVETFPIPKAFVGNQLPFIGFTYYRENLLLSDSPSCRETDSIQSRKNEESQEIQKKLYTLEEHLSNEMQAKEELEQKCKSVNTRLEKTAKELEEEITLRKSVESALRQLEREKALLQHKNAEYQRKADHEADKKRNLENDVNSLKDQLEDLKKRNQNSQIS
How it was run: (§3)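 Baculovirus-expressed constitutively active ROCK1 or ROCK2 (2 nM) incubated 90 min at room temperature with 50 nM ULight-CREBtide and compound (0.5% DMSO) in Tris pH 7.5, MgCl2, EGTA, Tween-20, DTT. EDTA-stopped; phospho-substrate detected by Eu-anti-phospho-CREB TR-FRET after 60 min; IC50 by non-linear regression.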

[2] = target: T3, GST-tagged human ROCK1 catalytic domain 1-477 (Homo sapiens, UniProt Q13464); test: Isolated Enzyme Assay, ROCK1 (LANCE Ultra ULight-CREBtide FRET); format: biochemical; conditions: isolated enzyme assay; 30 μM highest concentration tested; read-out: Results from Isolated Enzyme Assay IC50 (μM) ROCK1
T3 construct: human ROCK1 catalytic domain 1-477 from Carna Biosciences (cat #01-109); purchased Carna Biosciences 01-109; host or cells: baculovirus expression system
T3 sequence (Q13464 1-477): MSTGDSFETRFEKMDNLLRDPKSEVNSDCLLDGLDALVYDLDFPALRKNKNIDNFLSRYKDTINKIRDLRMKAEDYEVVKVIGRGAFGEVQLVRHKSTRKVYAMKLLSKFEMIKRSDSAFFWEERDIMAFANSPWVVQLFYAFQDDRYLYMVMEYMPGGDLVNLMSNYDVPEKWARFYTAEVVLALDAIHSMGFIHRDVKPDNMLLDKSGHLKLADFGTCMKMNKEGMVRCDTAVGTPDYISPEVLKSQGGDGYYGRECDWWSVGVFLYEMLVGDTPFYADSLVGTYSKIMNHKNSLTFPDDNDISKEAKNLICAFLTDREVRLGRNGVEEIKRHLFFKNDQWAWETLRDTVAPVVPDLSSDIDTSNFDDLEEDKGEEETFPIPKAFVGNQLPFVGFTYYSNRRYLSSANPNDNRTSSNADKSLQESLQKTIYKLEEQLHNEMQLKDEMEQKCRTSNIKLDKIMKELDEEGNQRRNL
How it was run: as §3

ROCK2 = target: T4, ROCK2 (Homo sapiens, UniProt O75116); test: Cell-Based Assay, ROCK2 (HAP1 knockout cells, phospho-MYPT1 Thr853 ELISA); conditions: class symbols, read-out: Results from Cell-Based Assay IC50 (μM) ROCK2
T4 construct: endogenous in cells; host or cells: HAP1 knockout cells
T4 sequence (O75116 whole entry): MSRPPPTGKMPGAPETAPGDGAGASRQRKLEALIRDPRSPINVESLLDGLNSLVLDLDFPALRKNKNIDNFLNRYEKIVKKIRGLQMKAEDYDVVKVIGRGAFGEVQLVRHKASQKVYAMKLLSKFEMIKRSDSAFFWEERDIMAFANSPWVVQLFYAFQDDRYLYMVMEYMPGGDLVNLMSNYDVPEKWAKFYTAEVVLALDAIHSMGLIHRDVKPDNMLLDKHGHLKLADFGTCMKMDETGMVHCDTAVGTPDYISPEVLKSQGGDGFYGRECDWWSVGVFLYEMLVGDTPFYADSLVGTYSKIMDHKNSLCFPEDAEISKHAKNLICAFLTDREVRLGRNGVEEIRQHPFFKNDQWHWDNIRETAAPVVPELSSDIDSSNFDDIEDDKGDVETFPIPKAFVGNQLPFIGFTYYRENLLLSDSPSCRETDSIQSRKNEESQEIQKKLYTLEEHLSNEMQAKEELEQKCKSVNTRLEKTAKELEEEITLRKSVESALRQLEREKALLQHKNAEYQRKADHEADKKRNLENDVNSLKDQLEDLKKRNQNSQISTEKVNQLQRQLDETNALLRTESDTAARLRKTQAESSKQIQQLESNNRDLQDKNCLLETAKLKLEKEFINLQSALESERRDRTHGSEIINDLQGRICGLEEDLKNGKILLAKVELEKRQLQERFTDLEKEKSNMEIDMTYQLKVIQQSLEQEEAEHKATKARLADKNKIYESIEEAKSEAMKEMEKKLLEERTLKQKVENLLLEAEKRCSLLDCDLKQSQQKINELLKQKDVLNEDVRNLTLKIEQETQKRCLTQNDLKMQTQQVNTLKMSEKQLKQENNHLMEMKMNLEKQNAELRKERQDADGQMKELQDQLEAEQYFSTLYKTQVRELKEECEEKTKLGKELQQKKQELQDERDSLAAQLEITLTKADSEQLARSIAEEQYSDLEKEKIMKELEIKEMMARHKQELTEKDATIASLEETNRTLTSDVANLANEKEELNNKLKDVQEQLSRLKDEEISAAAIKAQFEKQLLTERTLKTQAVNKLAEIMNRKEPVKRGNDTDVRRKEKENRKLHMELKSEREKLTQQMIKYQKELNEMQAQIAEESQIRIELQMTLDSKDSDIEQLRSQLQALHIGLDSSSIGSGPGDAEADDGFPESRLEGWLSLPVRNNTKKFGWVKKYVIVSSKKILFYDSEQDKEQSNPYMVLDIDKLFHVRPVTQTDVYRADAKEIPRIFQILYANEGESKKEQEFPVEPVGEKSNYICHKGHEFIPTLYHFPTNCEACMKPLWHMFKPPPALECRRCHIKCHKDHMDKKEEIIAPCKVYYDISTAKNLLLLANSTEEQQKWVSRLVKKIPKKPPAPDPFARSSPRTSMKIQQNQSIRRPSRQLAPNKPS
Experimental: as §1, §2

Compound	IC50 (ROCK1; class symbols) [µM]	IC50 [1] [µM]	IC50 [2] [µM]	IC50 (ROCK2) [µM]	IC50 (ROCK1; numeric bound) [µM]
CC1(C)CN(c2cccc(-c3nsc(Nc4ccc5[nH]ncc5c4Cl)n3)c2)C(=O)O1 [IV-54]	1 to 15	< 1	< 1	< 1	–
CC1(C)CCN(c2cccc(-c3nsc(Nc4ccc5[nH]ncc5c4Cl)n3)c2)C1=O [IV-56]	1 to 15	< 1	< 1	< 1	–
Cc1cc(C(=O)Nc2cc(-c3nsc(Nc4ccc5[nH]ncc5c4Cl)n3)ccn2)n(C)n1 [IV-58]	–	< 1	> 30	< 1	> 10
Cc1coc(-c2cc(-c3nsc(Nc4ccc5[nH]ncc5c4Cl)n3)ccn2)n1 [IV-59]	–	< 1	> 30	< 1	> 10
Cc1nc(C)c(C(=O)Nc2cccc(-c3nsc(Nc4ccc5[nH]ncc5c4Cl)n3)c2)o1 [IV-61]	–	< 1	< 1	< 1	> 10
Cn1nncc1C(=O)Nc1cccc(-c2nsc(Nc3ccc4[nH]ncc4c3Cl)n2)c1 [IV-62]	–	< 1	< 1	< 1	> 10
CC(C)c1cc(C(=O)Nc2cccc(-c3nsc(Nc4ccc5[nH]ncc5c4Cl)n3)c2)n(C)n1 [IV-63]	1 to 15	< 1	< 1	< 1	–
O=C(Nc1cccnc1)c1cccc(-c2nsc(Nc3ccc4[nH]ncc4c3Cl)n2)c1 [IV-65]	–	< 1	< 1	< 1	> 10
COc1ncc(C(=O)Nc2cccc(-c3nsc(Nc4ccc5[nH]ncc5c4Cl)n3)c2)cn1 [IV-70]	–	< 1	< 1	< 1	> 10
Cn1cc(C(=O)Nc2cccc(-c3nsc(Nc4ccc5[nH]ncc5c4Cl)n3)c2)c(C(F)(F)F)n1 [IV-72]	1 to 15	< 1	< 1	< 1	–

Continued, values first:

IC50 (ROCK1; class symbols) [µM]	IC50 [1] [µM]	IC50 [2] [µM]	IC50 (ROCK2) [µM]	IC50 (ROCK1; numeric bound) [µM]	Compound
1 to 15	< 1	< 1	< 1	–	O=C(NC1CCCC1)c1cc(-c2nsc(Nc3ccc4[nH]ncc4c3Cl)n2)ccc1F [IV-48]
–	< 1	< 1	< 1	> 10	CNC(=O)c1cc(-c2nsc(Nc3ccc4[nH]ncc4c3Cl)n2)ccc1F [IV-49]
–	< 1	> 30	< 1	> 10	Cn1cc(-c2nsc(Nc3ccc4[nH]ncc4c3Cl)n2)cc(NC(=O)c2ccccc2F)c1=O [IV-50]
1 to 15	< 1	< 1	< 1	–	O=C1OCCN1c1cccc(-c2nsc(Nc3ccc4[nH]ncc4c3Cl)n2)c1 [IV-55]
1 to 15	< 1	< 1	< 1	–	O=C(Nc1ccccn1)c1cccc(-c2nsc(Nc3ccc4[nH]ncc4c3Cl)n2)c1 [IV-66]
1 to 15	< 1	< 1	< 1	–	O=C(CC1CCCO1)Nc1cccc(-c2nsc(Nc3ccc4[nH]ncc4c3Cl)n2)c1 (stereo not drawn) [IV-71]
–	< 1	< 1	< 1	> 10	Cn1ccnc1C(=O)Nc1cccc(-c2nsc(Nc3ccc4[nH]ncc4c3Cl)n2)c1 [IV-73]
1 to 15	< 1	< 1	< 1	–	O=C(Nc1cccc(-c2nsc(Nc3ccc4[nH]ncc4c3Cl)n2)c1)c1ccccn1 [IV-74]
–	< 1	< 1	< 1	> 10	O=C(Nc1cccc(-c2nsc(Nc3ccc4[nH]ncc4c3Cl)n2)c1)c1cc[nH]n1 [IV-75]
–	< 1	< 1	< 1	> 10	Cc1cc(C(=O)Nc2cccc(-c3nsc(Nc4ccc5[nH]ncc5c4Cl)n3)c2)n[nH]1 [IV-76]
–	< 1	< 1	< 1	> 10	Cn1ccc(C(=O)Nc2cccc(-c3nsc(Nc4ccc5[nH]ncc5c4Cl)n3)c2)n1 [IV-77]
